Test results reported in PMC11822212, “High-throughput screening identifies Aurora kinase B as a critical therapeutic target for Merkel cell carcinoma” (Nature Communications, 2025).
Values joined by “and” are separate entries in the source; they are usually repeats but may differ in a detail not shown here. Identical values can stand only once. Like-named read-outs stand apart in the source and are kept apart here.

Assays:
Assay in all cases: qHTS cell viability (CellTiter-Glo, 72 h; primary and follow-up small molecule screen)
Format in all cases: cell-based, human
MCC26 cells (VN-MCC) = tested on: MCC26 cells (VN-MCC)
MKL-1 cells (VP-MCC) = tested on: MKL-1 cells (VP-MCC)
UISO cells (VN-MCC) = tested on: UISO cells (VN-MCC)
MKL-2 cells (VP-MCC) = tested on: MKL-2 cells (VP-MCC)
WAGA cells (VP-MCC) = tested on: WAGA cells (VP-MCC)
MCC13 cells (VN-MCC) = tested on: MCC13 cells (VN-MCC)
[1] = follow-up screen, MCC26, replicate 1
[2] = follow-up screen, MCC26, replicate 2
[3] = follow-up screen, MCC26, replicate 3
[4] = follow-up screen, MKL-1, replicate 1
[5] = follow-up screen, MKL-1, replicate 2
[6] = follow-up screen, MKL-1, replicate 3
[7] = follow-up screen, UISO, replicate 1
[8] = follow-up screen, UISO, replicate 2
[9] = follow-up screen, UISO, replicate 3
[10] = follow-up screen, MKL-2, replicate 1
[11] = follow-up screen, MKL-2, replicate 2
[12] = follow-up screen, MKL-2, replicate 3
[13] = follow-up screen, WAGA, replicate 1
[14] = follow-up screen, WAGA, replicate 2
[15] = follow-up screen, WAGA, replicate 3
[16] = follow-up screen, MCC13, replicate 1
[17] = follow-up screen, MCC13, replicate 2
[18] = follow-up screen, MCC13, replicate 3

Compound	Area under the dose-response curve (AUC) MCC26 Replicate 1 (MCC26 cells (VN-MCC); [1])	Area under the dose-response curve (AUC) MCC26 Replicate 2 (MCC26 cells (VN-MCC); [2])	Area under the dose-response curve (AUC) MCC26 Replicate 3 (MCC26 cells (VN-MCC); [3])	Area under the dose-response curve (AUC) MKL-1 Replicate 1 (MKL-1 cells (VP-MCC); [4])	Area under the dose-response curve (AUC) MKL-1 Replicate 2 (MKL-1 cells (VP-MCC); [5])	Area under the dose-response curve (AUC) MKL-1 Replicate 3 (MKL-1 cells (VP-MCC); [6])	Area under the dose-response curve (AUC) UISO Replicate 1 (UISO cells (VN-MCC); [7])	Area under the dose-response curve (AUC) UISO Replicate 2 (UISO cells (VN-MCC); [8])	Area under the dose-response curve (AUC) UISO Replicate 3 (UISO cells (VN-MCC); [9])	Area under the dose-response curve (AUC) MKL-2 Replicate 1 (MKL-2 cells (VP-MCC); [10])	Area under the dose-response curve (AUC) MKL-2 Replicate 2 (MKL-2 cells (VP-MCC); [11])	Area under the dose-response curve (AUC) MKL-2 Replicate 3 (MKL-2 cells (VP-MCC); [12])	Area under the dose-response curve (AUC) WAGA Replicate 1 (WAGA cells (VP-MCC); [13])	Area under the dose-response curve (AUC) WAGA Replicate 2 (WAGA cells (VP-MCC); [14])	Area under the dose-response curve (AUC) WAGA Replicate 3 (WAGA cells (VP-MCC); [15])	Area under the dose-response curve (AUC) MCC13 Replicate 1 (MCC13 cells (VN-MCC); [16])	Area under the dose-response curve (AUC) MCC13 Replicate 2 (MCC13 cells (VN-MCC); [17])	Area under the dose-response curve (AUC) MCC13 Replicate 3 (MCC13 cells (VN-MCC); [18])	further results
C[C@]12CC[C@H](O)C[C@H]1CC[C@@H]1[C@@H]2CC[C@]2(C)[C@@H](c3ccc(=O)oc3)CC[C@]12O [Bufalin]	–	–	–	–	–	–	–	–	–	–	–	–	–	–	–	–	–	–	Area under the dose-response curve (AUC) (MCC26 cells (VN-MCC)): 270.7 and 302.4 and 244.7; Area under the dose-response curve (AUC) (MKL-1 cells (VP-MCC)): 317.9 and 310.4 and 298.2; Area under the dose-response curve (AUC) (UISO cells (VN-MCC)): 235.9 and 234.7 and 201.8; Area under the dose-response curve (AUC) (MKL-2 cells (VP-MCC)): 316.9 and 287.6 and 264.0; Area under the dose-response curve (AUC) (WAGA cells (VP-MCC)): 311.5 and 289.3 and 286.6; Area under the dose-response curve (AUC) (MCC13 cells (VN-MCC)): 246.2 and 243.7 and 237.7
CCCNC(=O)[C@H]1O[C@@H]1C(=O)N[C@H](C(=O)N1CCC[C@H]1C(=O)OC)C(C)CC (stereo partly drawn) [CA-074 Me]	–	–	–	–	–	–	–	–	–	–	–	–	–	–	–	–	–	–	Area under the dose-response curve (AUC) MCC26 Replicate 1 (MCC26 cells (VN-MCC)): 401.2; Area under the dose-response curve (AUC) MCC26 Replicate 2 (MCC26 cells (VN-MCC)): 420.5; Area under the dose-response curve (AUC) MCC26 Replicate 3 (MCC26 cells (VN-MCC)): 371.8; Area under the dose-response curve (AUC) MKL-1 Replicate 1 (MKL-1 cells (VP-MCC)): 343.4; Area under the dose-response curve (AUC) MKL-1 Replicate 2 (MKL-1 cells (VP-MCC)): 329.7; Area under the dose-response curve (AUC) MKL-1 Replicate 3 (MKL-1 cells (VP-MCC)): 317.3; Area under the dose-response curve (AUC) UISO Replicate 1 (UISO cells (VN-MCC)): 368.5; Area under the dose-response curve (AUC) UISO Replicate 2 (UISO cells (VN-MCC)): 355.5; Area under the dose-response curve (AUC) UISO Replicate 3 (UISO cells (VN-MCC)): 334.3; Area under the dose-response curve (AUC) MKL-2 Replicate 1 (MKL-2 cells (VP-MCC)): 305.9; Area under the dose-response curve (AUC) MKL-2 Replicate 2 (MKL-2 cells (VP-MCC)): 306.4; Area under the dose-response curve (AUC) MKL-2 Replicate 3 (MKL-2 cells (VP-MCC)): 348.6; Area under the dose-response curve (AUC) WAGA Replicate 1 (WAGA cells (VP-MCC)): 383.1; Area under the dose-response curve (AUC) WAGA Replicate 2 (WAGA cells (VP-MCC)): 375.3; Area under the dose-response curve (AUC) WAGA Replicate 3 (WAGA cells (VP-MCC)): 378.5; Area under the dose-response curve (AUC) MCC13 Replicate 1 (MCC13 cells (VN-MCC)): 449.3; Area under the dose-response curve (AUC) MCC13 Replicate 2 (MCC13 cells (VN-MCC)): 470.8; Area under the dose-response curve (AUC) MCC13 Replicate 3 (MCC13 cells (VN-MCC)): 430.6
Cc1nc2ccc(-n3ncc(C(=O)c4cc5ccccc5[nH]4)c3N)cc2[nH]1 [CH5183284 (Debio-1347)]	–	–	–	–	–	–	–	–	–	–	–	–	–	–	–	–	–	–	Area under the dose-response curve (AUC) (MCC26 cells (VN-MCC)): 405.6 and 395.0 and 403.7; Area under the dose-response curve (AUC) (MKL-1 cells (VP-MCC)): 508.7 and 488.2 and 500.7; Area under the dose-response curve (AUC) (UISO cells (VN-MCC)): 433.7 and 424.4 and 430.0; Area under the dose-response curve (AUC) (MKL-2 cells (VP-MCC)): 485.9 and 459.2 and 468.2; Area under the dose-response curve (AUC) (WAGA cells (VP-MCC)): 493.1 and 498.3 and 457.6; Area under the dose-response curve (AUC) (MCC13 cells (VN-MCC)): 509.3 and 491.7 and 491.1
CC[C@@]1(O)C(=O)OCc2c1cc1n(c2=O)Cc2cc3ccccc3nc2-1 [Camptothecin]	203.3	207.4	184.6	168.7	185.9	170.7	151.6	176.2	177.2	160.6	161.3	224.5	164.4	180.7	159.3	224.5	221.7	254.2	–
COCc1c(C(C)C)nc(C(C)C)c(/C=C/[C@@H](O)C[C@@H](O)CC(=O)O)c1-c1ccc(F)cc1 [Cerivastatin sodium]	312.2	285.4	322.6	337.1	326.8	335.0	255.3	261.7	240.8	362.8	331.4	356.5	385.6	358.6	363.6	319.0	316.5	320.7	–
COc1ccc2c(c[n+](C)c3c4cc5c(cc4ccc23)OCO5)c1OC [Chelerythrine chloride]	384.2	379.8	390.1	325.9	295.9	331.6	417.2	419.6	390.8	317.6	350.5	338.8	387.5	415.9	372.6	404.1	410.9	433.8	–
COc1ccc([C@]2(C#N)CC[C@@H](C(=O)O)CC2)cc1OC1CCCC1 [Cilomilast]	421.1	410.0	436.1	459.2	478.6	483.6	447.9	471.9	485.5	473.7	471.8	486.7	477.6	504.5	496.1	465.9	445.9	491.5	–
Nc1nc(Cl)nc2c1ncn2[C@@H]1O[C@H](CO)[C@@H](O)[C@@H]1F [Clofarabine]	347.1	310.6	353.8	270.1	265.5	283.6	305.8	296.3	317.2	314.2	343.5	397.2	261.2	248.1	263.5	326.5	337.3	347.1	–
C[C@H]1CCC/C=C/[C@@H]2C[C@H](O)C[C@H]2[C@H](O)/C=C/C(=O)O1 [Cyanein]	231.7	265.8	194.4	208.9	220.0	232.6	206.3	227.9	213.5	238.6	217.1	214.7	224.1	259.2	236.6	216.1	230.2	238.1	–
CC(=O)C1=C(O)[C@@H]2[C@H]3c4c[nH]c5cccc(c45)C[C@H]3C(C)(C)N2C1=O [Cyclopiazonic acid]	–	–	–	–	–	–	–	–	–	–	–	–	–	–	–	–	–	–	Area under the dose-response curve (AUC) MCC26 Replicate 1 (MCC26 cells (VN-MCC)): 467.3; Area under the dose-response curve (AUC) MCC26 Replicate 2 (MCC26 cells (VN-MCC)): 434.2; Area under the dose-response curve (AUC) MCC26 Replicate 3 (MCC26 cells (VN-MCC)): 474.3; Area under the dose-response curve (AUC) MKL-1 Replicate 1 (MKL-1 cells (VP-MCC)): 549.5; Area under the dose-response curve (AUC) MKL-1 Replicate 2 (MKL-1 cells (VP-MCC)): 470.8; Area under the dose-response curve (AUC) MKL-1 Replicate 3 (MKL-1 cells (VP-MCC)): 482.5; Area under the dose-response curve (AUC) UISO Replicate 1 (UISO cells (VN-MCC)): 472.8; Area under the dose-response curve (AUC) UISO Replicate 2 (UISO cells (VN-MCC)): 458.0; Area under the dose-response curve (AUC) UISO Replicate 3 (UISO cells (VN-MCC)): 445.8; Area under the dose-response curve (AUC) MKL-2 Replicate 1 (MKL-2 cells (VP-MCC)): 490.7; Area under the dose-response curve (AUC) MKL-2 Replicate 2 (MKL-2 cells (VP-MCC)): 497.0; Area under the dose-response curve (AUC) MKL-2 Replicate 3 (MKL-2 cells (VP-MCC)): 473.0; Area under the dose-response curve (AUC) WAGA Replicate 1 (WAGA cells (VP-MCC)): 561.2; Area under the dose-response curve (AUC) WAGA Replicate 2 (WAGA cells (VP-MCC)): 524.5; Area under the dose-response curve (AUC) WAGA Replicate 3 (WAGA cells (VP-MCC)): 501.8; Area under the dose-response curve (AUC) MCC13 Replicate 1 (MCC13 cells (VN-MCC)): 495.4; Area under the dose-response curve (AUC) MCC13 Replicate 2 (MCC13 cells (VN-MCC)): 488.6; Area under the dose-response curve (AUC) MCC13 Replicate 3 (MCC13 cells (VN-MCC)): 449.6
